Laboratory results published in the supplement of paper PMC4862054.

What follows are compounds tested on HDQ-P1 (assay: normalised response (% of control), CellTiter-Glo; higher = more viable cells (100 = DMSO, 0 = benzethonium chloride kill control)). Conditions: incubation time: 72 h.
How it was run: (§1)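 Every value is a normalised signal taken at one concentration of a dilution series. Compound was placed in 384-well plates at 5 concentrations in 10-fold steps over a compound-specific 10,000-fold range, and 20 µl of breast cancer cell suspension was seeded onto it. After 72 h, CellTox Green fluorescence (485/520 nm) was measured first and CellTiter-Glo luminescence second, following 10 min at room temperature. Each plate was scaled to 0.1 % DMSO (100) and a positive kill control (0).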

In order of falling normalised response:
1. COc1cc2c(NC3CCN(C(C)C)CC3)nc(N3CCC(F)(F)CC3)nc2cc1OCCCN1CCCC1 [UNC0642] (1000 nM)  99.7%
2. Cc1cc(Nc2cc(CN3CCOCC3)c3nc(C)c(Cc4ccc(Cl)cc4F)n3n2)n[nH]1 [Gandotinib] (1000 nM)  90%

What follows are compounds tested on CAL-120 in the same assay as above. Conditions: incubation time: 72 h.
How it was run: as §1

In order of rising normalised response:
1. CNC(=O)c1cccc(-c2ccc3c(N4CCOC[C@@H]4C)nc(N4CCOC[C@@H]4C)nc3n2)c1 [AZD2014] (1000 nM)  32.5%
2. CCOC(=O)CCNc1cc(N2CCc3ccccc3CC2)nc(-c2ccccn2)n1 [GSK-J4] (10000 nM)  61.7%
3. CCn1c(-c2nonc2N)nc2cnc(Oc3cccc(NC(=O)c4ccc(OCCN5CCOCC5)cc4)c3)cc21 (1000 nM)  72.6%
4. Nc1cc(C(F)(F)F)c(-c2cc(N3CCOCC3)nc(N3CCOCC3)n2)cn1 [Buparlisib] (1000 nM)  88%
5. COc1cc2c(NC3CCN(C(C)C)CC3)nc(N3CCC(F)(F)CC3)nc2cc1OCCCN1CCCC1 [UNC0642] (1000 nM)  89%
6. Cc1cc(Nc2cc(CN3CCOCC3)c3nc(C)c(Cc4ccc(Cl)cc4F)n3n2)n[nH]1 [Gandotinib] (1000 nM)  90.4%

What follows are compounds tested on CAL-148 in the same assay as above. Conditions: incubation time: 72 h.
How it was run: as §1

In order of falling normalised response:
1. Cc1cc(Nc2cc(CN3CCOCC3)c3nc(C)c(Cc4ccc(Cl)cc4F)n3n2)n[nH]1 [Gandotinib] (1000 nM)  96.7%
2. Nc1cc(C(F)(F)F)c(-c2cc(N3CCOCC3)nc(N3CCOCC3)n2)cn1 [Buparlisib] (1000 nM)  96.2%
3. COc1cc2c(NC3CCN(C(C)C)CC3)nc(N3CCC(F)(F)CC3)nc2cc1OCCCN1CCCC1 [UNC0642] (1000 nM)  89.1%
4. CCn1c(-c2nonc2N)nc2cnc(Oc3cccc(NC(=O)c4ccc(OCCN5CCOCC5)cc4)c3)cc21 (1000 nM)  86.7%
5. CNC(=O)c1cccc(-c2ccc3c(N4CCOC[C@@H]4C)nc(N4CCOC[C@@H]4C)nc3n2)c1 [AZD2014] (1000 nM)  35.1%
6. CCOC(=O)CCNc1cc(N2CCc3ccccc3CC2)nc(-c2ccccn2)n1 [GSK-J4] (10000 nM)  10.1%

The compounds below were run on BT-474 in the same assay as above. Conditions: incubation time: 72 h.
How it was run: as §1

In order of falling normalised response:
1. COc1cc2c(NC3CCN(C(C)C)CC3)nc(N3CCC(F)(F)CC3)nc2cc1OCCCN1CCCC1 [UNC0642] (1000 nM)  109%
2. Nc1cc(C(F)(F)F)c(-c2cc(N3CCOCC3)nc(N3CCOCC3)n2)cn1 [Buparlisib] (1000 nM)  99.8%
3. CCn1c(-c2nonc2N)nc2cnc(Oc3cccc(NC(=O)c4ccc(OCCN5CCOCC5)cc4)c3)cc21 (1000 nM)  82.6%
4. Cc1cc(Nc2cc(CN3CCOCC3)c3nc(C)c(Cc4ccc(Cl)cc4F)n3n2)n[nH]1 [Gandotinib] (1000 nM)  75.8%
5. CNC(=O)c1cccc(-c2ccc3c(N4CCOC[C@@H]4C)nc(N4CCOC[C@@H]4C)nc3n2)c1 [AZD2014] (1000 nM)  59.5%
6. CCOC(=O)CCNc1cc(N2CCc3ccccc3CC2)nc(-c2ccccn2)n1 [GSK-J4] (10000 nM)  44.7%

The compounds below were run on CAL-85-1 in the same assay as above. Conditions: incubation time: 72 h.
How it was run: as §1

In order of rising normalised response:
1. CCOC(=O)CCNc1cc(N2CCc3ccccc3CC2)nc(-c2ccccn2)n1 [GSK-J4] (10000 nM)  20.1%
2. CNC(=O)c1cccc(-c2ccc3c(N4CCOC[C@@H]4C)nc(N4CCOC[C@@H]4C)nc3n2)c1 [AZD2014] (1000 nM)  36.9%
3. Cc1cc(Nc2cc(CN3CCOCC3)c3nc(C)c(Cc4ccc(Cl)cc4F)n3n2)n[nH]1 [Gandotinib] (1000 nM)  78.1%
4. COc1cc2c(NC3CCN(C(C)C)CC3)nc(N3CCC(F)(F)CC3)nc2cc1OCCCN1CCCC1 [UNC0642] (1000 nM)  93.2%
5. Nc1cc(C(F)(F)F)c(-c2cc(N3CCOCC3)nc(N3CCOCC3)n2)cn1 [Buparlisib] (1000 nM)  95.1%
6. CCn1c(-c2nonc2N)nc2cnc(Oc3cccc(NC(=O)c4ccc(OCCN5CCOCC5)cc4)c3)cc21 (1000 nM)  102%

The compounds below were run on MDA-MB-231 in the same assay as above. Conditions: incubation time: 72 h.
How it was run: as §1

In order of falling normalised response:
1. COc1cc2c(NC3CCN(C(C)C)CC3)nc(N3CCC(F)(F)CC3)nc2cc1OCCCN1CCCC1 [UNC0642] (1000 nM)  95.4%
2. Nc1cc(C(F)(F)F)c(-c2cc(N3CCOCC3)nc(N3CCOCC3)n2)cn1 [Buparlisib] (1000 nM)  90.3%
3. CCn1c(-c2nonc2N)nc2cnc(Oc3cccc(NC(=O)c4ccc(OCCN5CCOCC5)cc4)c3)cc21 (1000 nM)  80.5%
4. Cc1cc(Nc2cc(CN3CCOCC3)c3nc(C)c(Cc4ccc(Cl)cc4F)n3n2)n[nH]1 [Gandotinib] (1000 nM)  70.7%
5. CNC(=O)c1cccc(-c2ccc3c(N4CCOC[C@@H]4C)nc(N4CCOC[C@@H]4C)nc3n2)c1 [AZD2014] (1000 nM)  57.8%
6. CCOC(=O)CCNc1cc(N2CCc3ccccc3CC2)nc(-c2ccccn2)n1 [GSK-J4] (10000 nM)  30.7%

The compounds below were run on MDA-MB-468 in the same assay as above. Conditions: incubation time: 72 h.
How it was run: as §1

In order of falling normalised response:
1. COc1cc2c(NC3CCN(C(C)C)CC3)nc(N3CCC(F)(F)CC3)nc2cc1OCCCN1CCCC1 [UNC0642] (1000 nM)  85.9%
2. CCn1c(-c2nonc2N)nc2cnc(Oc3cccc(NC(=O)c4ccc(OCCN5CCOCC5)cc4)c3)cc21 (1000 nM)  83%
3. Nc1cc(C(F)(F)F)c(-c2cc(N3CCOCC3)nc(N3CCOCC3)n2)cn1 [Buparlisib] (1000 nM)  82.9%
4. Cc1cc(Nc2cc(CN3CCOCC3)c3nc(C)c(Cc4ccc(Cl)cc4F)n3n2)n[nH]1 [Gandotinib] (1000 nM)  53.1%
5. CNC(=O)c1cccc(-c2ccc3c(N4CCOC[C@@H]4C)nc(N4CCOC[C@@H]4C)nc3n2)c1 [AZD2014] (1000 nM)  43.3%
6. CCOC(=O)CCNc1cc(N2CCc3ccccc3CC2)nc(-c2ccccn2)n1 [GSK-J4] (10000 nM)  12.7%

These compounds were tested on MDA-MB-453 in the same assay as above. Conditions: incubation time: 72 h.
How it was run: as §1

In order of rising normalised response:
1. CCOC(=O)CCNc1cc(N2CCc3ccccc3CC2)nc(-c2ccccn2)n1 [GSK-J4] (10000 nM)  33.1%
2. CNC(=O)c1cccc(-c2ccc3c(N4CCOC[C@@H]4C)nc(N4CCOC[C@@H]4C)nc3n2)c1 [AZD2014] (1000 nM)  39.8%
3. COc1cc2c(NC3CCN(C(C)C)CC3)nc(N3CCC(F)(F)CC3)nc2cc1OCCCN1CCCC1 [UNC0642] (1000 nM)  94.6%
4. CCn1c(-c2nonc2N)nc2cnc(Oc3cccc(NC(=O)c4ccc(OCCN5CCOCC5)cc4)c3)cc21 (1000 nM)  95.6%
5. Nc1cc(C(F)(F)F)c(-c2cc(N3CCOCC3)nc(N3CCOCC3)n2)cn1 [Buparlisib] (1000 nM)  99%
6. Cc1cc(Nc2cc(CN3CCOCC3)c3nc(C)c(Cc4ccc(Cl)cc4F)n3n2)n[nH]1 [Gandotinib] (1000 nM)  107%

Each compound was assayed on HCC1599 in the same assay as above. Conditions: incubation time: 72 h.
How it was run: as §1

In order of falling normalised response:
1. Cc1cc(Nc2cc(CN3CCOCC3)c3nc(C)c(Cc4ccc(Cl)cc4F)n3n2)n[nH]1 [Gandotinib] (1000 nM)  124%
2. Nc1cc(C(F)(F)F)c(-c2cc(N3CCOCC3)nc(N3CCOCC3)n2)cn1 [Buparlisib] (1000 nM)  102%
3. CNC(=O)c1cccc(-c2ccc3c(N4CCOC[C@@H]4C)nc(N4CCOC[C@@H]4C)nc3n2)c1 [AZD2014] (1000 nM)  98.5%
4. COc1cc2c(NC3CCN(C(C)C)CC3)nc(N3CCC(F)(F)CC3)nc2cc1OCCCN1CCCC1 [UNC0642] (1000 nM)  93.1%
5. CCn1c(-c2nonc2N)nc2cnc(Oc3cccc(NC(=O)c4ccc(OCCN5CCOCC5)cc4)c3)cc21 (1000 nM)  91.3%
6. CCOC(=O)CCNc1cc(N2CCc3ccccc3CC2)nc(-c2ccccn2)n1 [GSK-J4] (10000 nM)  45.9%

What follows are compounds tested on MCF-10A in the same assay as above. Conditions: incubation time: 72 h.
How it was run: as §1

In order of falling normalised response:
1. Cc1cc(Nc2cc(CN3CCOCC3)c3nc(C)c(Cc4ccc(Cl)cc4F)n3n2)n[nH]1 [Gandotinib] (1000 nM)  96.6%
2. COc1cc2c(NC3CCN(C(C)C)CC3)nc(N3CCC(F)(F)CC3)nc2cc1OCCCN1CCCC1 [UNC0642] (1000 nM)  84.6%
3. CCn1c(-c2nonc2N)nc2cnc(Oc3cccc(NC(=O)c4ccc(OCCN5CCOCC5)cc4)c3)cc21 (1000 nM)  75.9%
4. Nc1cc(C(F)(F)F)c(-c2cc(N3CCOCC3)nc(N3CCOCC3)n2)cn1 [Buparlisib] (1000 nM)  55.6%
5. CNC(=O)c1cccc(-c2ccc3c(N4CCOC[C@@H]4C)nc(N4CCOC[C@@H]4C)nc3n2)c1 [AZD2014] (1000 nM)  46.5%
6. CCOC(=O)CCNc1cc(N2CCc3ccccc3CC2)nc(-c2ccccn2)n1 [GSK-J4] (10000 nM)  45.2%
